Data from patent publication US7514448B2, “Azaindoles useful as inhibitors of rock and other protein kinases” (Vertex Pharmaceuticals Incorporated, priority 2004, dated 2009).

How the values were obtained:
PKA = PKA (Homo sapiens, UniProt P17612); test: PKA inhibition assay, coupled enzyme; assay type: biochemical; conditions: average Ki if more than one determined
Experimental: Compounds were screened for their ability to inhibit PKA using a standard coupled enzyme assay (Fox et al., Protein Sci, 1998, 7, 2249). Assays were carried out in a mixture of 100 mM HEPES (pH 7.5), 10 mM MgCl2, 25 mM NaCl, 1 mM DTT and 3% DMSO. Final substrate concentrations in the assay were 50 μM ATP (Sigma Chemicals) and 80 μM peptide (Kemptide, American Peptide, Sunnyvale, Calif.). Assays were carried out at 30° C. and 18 nM PKA. Final concentrations of the components of the coupled enzyme system were 2.5 mM phosphoenolpyruvate, 300 μM NADH, 30 μg/ml pyruvate kinase and 10 μg/ml lactate dehydrogenase.
An assay stock buffer solution was prepared containing all of the reagents listed above, with the exception of ATP, and the test compound of the present invention. […] The plate was preincubated for 10 minutes at 30° C. and the reaction initiated by addition of 5 μl of ATP (final concentration 50 μM). Initial reaction rates were determined with a Molecular Devices SpectraMax Plus plate reader over a 15 minute time course. IC50 and Ki data were calculated from non-linear regression analysis using the Prism software package (GraphPad Prism version 3.0a for Macintosh, GraphPad Software, San Diego Calif., USA).

ROCK = ROCK (Homo sapiens, UniProt Q13464); test: ROCK radioactive assay ("33P"); assay type: biochemical; conditions: radioactive assay; average Ki if more than one determined; read-out: ROCK 33P Ki
ROCK, sequence (Q13464 whole entry): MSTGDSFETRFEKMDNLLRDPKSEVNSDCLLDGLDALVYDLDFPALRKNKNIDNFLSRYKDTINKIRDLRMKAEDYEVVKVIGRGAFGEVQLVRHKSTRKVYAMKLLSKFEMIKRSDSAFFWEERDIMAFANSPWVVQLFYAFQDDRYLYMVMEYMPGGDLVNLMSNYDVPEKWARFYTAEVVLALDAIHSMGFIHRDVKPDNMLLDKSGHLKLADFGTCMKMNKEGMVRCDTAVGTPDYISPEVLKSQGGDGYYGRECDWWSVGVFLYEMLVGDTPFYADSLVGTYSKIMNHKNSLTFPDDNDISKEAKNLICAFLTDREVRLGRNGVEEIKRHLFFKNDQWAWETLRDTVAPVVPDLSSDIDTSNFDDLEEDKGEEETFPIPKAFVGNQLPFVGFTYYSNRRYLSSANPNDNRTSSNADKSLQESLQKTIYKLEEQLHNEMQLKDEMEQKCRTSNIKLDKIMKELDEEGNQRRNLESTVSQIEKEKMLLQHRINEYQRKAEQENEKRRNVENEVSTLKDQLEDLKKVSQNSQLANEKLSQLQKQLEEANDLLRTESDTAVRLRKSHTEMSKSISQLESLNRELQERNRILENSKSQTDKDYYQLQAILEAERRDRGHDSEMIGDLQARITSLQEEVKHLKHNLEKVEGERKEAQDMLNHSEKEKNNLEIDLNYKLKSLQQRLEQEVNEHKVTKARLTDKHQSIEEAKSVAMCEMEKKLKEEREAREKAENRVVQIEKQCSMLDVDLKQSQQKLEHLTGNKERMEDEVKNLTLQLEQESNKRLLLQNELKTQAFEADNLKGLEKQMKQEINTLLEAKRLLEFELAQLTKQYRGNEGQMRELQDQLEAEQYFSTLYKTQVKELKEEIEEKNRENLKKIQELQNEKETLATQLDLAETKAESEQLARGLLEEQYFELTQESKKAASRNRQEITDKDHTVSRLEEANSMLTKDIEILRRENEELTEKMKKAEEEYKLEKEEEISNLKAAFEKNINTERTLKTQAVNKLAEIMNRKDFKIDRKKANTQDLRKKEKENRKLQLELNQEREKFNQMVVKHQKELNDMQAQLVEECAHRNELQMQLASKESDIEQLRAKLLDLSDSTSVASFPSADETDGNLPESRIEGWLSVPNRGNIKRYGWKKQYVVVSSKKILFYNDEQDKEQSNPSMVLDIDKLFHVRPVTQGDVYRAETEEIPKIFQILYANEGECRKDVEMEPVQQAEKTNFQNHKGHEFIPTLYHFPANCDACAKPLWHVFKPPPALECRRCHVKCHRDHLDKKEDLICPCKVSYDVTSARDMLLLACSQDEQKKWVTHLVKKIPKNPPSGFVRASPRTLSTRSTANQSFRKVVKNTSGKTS
Excerpt: If more than one value of Ki has been determined, the average Ki is indicated. If no value is indicated, then the Ki was not determined.

| Structure (SMILES) | Ki (PKA) | Ki (ROCK) |
| --- | --- | --- |
| COc1cccc(CC(=O)Nc2nc(-c3c[nH]c4ncccc34)cs2)c1 [I-2] | < 500 nM |  |
| O=C(Cc1cccc(O)c1)Nc1nc(-c2c[nH]c3ncccc23)cs1 [I-12] | < 500 nM |  |
| O=C(NCc1cccc(S(=O)(=O)N2CCOCC2)c1)c1csc(-c2c[nH]c3ncccc23)c1 [II-130] | 500 to 5000 nM | < 500 nM |
| O=C(Cc1ccccc1)Nc1nc(-c2c[nH]c3ncc(O)cc23)cs1 [II-131] | < 500 nM | < 500 nM |
| CS(=O)(=O)Nc1cccc(CC(=O)Nc2nc(-c3c[nH]c4ncc(O)cc34)cs2)c1 [II-132] | 500 to 5000 nM | < 500 nM |
| N#CC1(C(=O)Nc2nc(-c3c[nH]c4ncccc34)cs2)CC1 [II-133] | < 500 nM | < 500 nM |
| CC(=O)Nc1nc(-c2c[nH]c3ncccc23)cs1 [II-134] | 500 to 5000 nM | < 500 nM |
| O=C(Cc1cccc(OCCCC2CCNCC2)c1)Nc1nc(-c2c[nH]c3ncc(F)cc23)cs1 [II-135] | < 500 nM | < 500 nM |
| CN1CCN(CCOc2cccc(CC(=O)Nc3nc(-c4c[nH]c5ncc(F)cc45)cs3)c2)CC1 [II-136] | 500 to 5000 nM | < 500 nM |
| CN1CCN(CCCOc2cccc(CC(=O)Nc3nc(-c4c[nH]c5ncc(F)cc45)cs3)c2)CC1 [II-137] | 500 to 5000 nM | < 500 nM |
| COCC(=O)Nc1nc(-c2c[nH]c3ncccc23)cs1 [II-142] | 500 to 5000 nM | < 500 nM |
| CC(O)C(=O)Nc1nc(-c2c[nH]c3ncccc23)cs1 (stereo not drawn) [II-143] | 500 to 5000 nM | < 500 nM |
| CO[C@@H](C)C(=O)Nc1nc(-c2c[nH]c3ncccc23)cs1 [II-144] | 500 to 5000 nM | < 500 nM |
| CC(=O)N[C@@H](C)C(=O)Nc1nc(-c2c[nH]c3ncccc23)cs1 [II-145] | 500 to 5000 nM | < 500 nM |
| O=C1CC[C@@H](C(=O)Nc2nc(-c3c[nH]c4ncccc34)cs2)O1 [II-146] | 500 to 5000 nM | < 500 nM |
| O=C1NCC(C(=O)Nc2nc(-c3c[nH]c4ncccc34)cs2)N1 (stereo not drawn) [II-147] | < 500 nM | < 500 nM |
| O=C1CC[C@@H](C(=O)Nc2nc(-c3c[nH]c4ncccc34)cs2)N1 [II-148] | < 500 nM | < 500 nM |
| CC(=O)NCC(=O)Nc1nc(-c2c[nH]c3ncccc23)cs1 [II-149] | 500 to 5000 nM | < 500 nM |
| COc1ccc(CC(=O)Nc2nc(-c3c[nH]c4ncc(F)cc34)cs2)c(Cl)c1 [II-150] | < 500 nM | < 500 nM |
| CS(=O)(=O)Nc1ccc(F)c(CC(=O)Nc2nc(-c3c[nH]c4ncc(F)cc34)cs2)c1 [II-151] | < 500 nM | < 500 nM |
| O=C1C[C@H](C(=O)Nc2nc(-c3c[nH]c4ncccc34)cs2)N1 [II-152] | < 500 nM | < 500 nM |
| O=C1CCC(C(=O)Nc2nc(-c3c[nH]c4ncccc34)cs2)N1 (stereo not drawn) [II-153] | 500 to 5000 nM | < 500 nM |
| O=C(Nc1nc(-c2c[nH]c3ncccc23)cs1)C1CCCO1 (stereo not drawn) [II-154] | < 500 nM | < 500 nM |
| O=C1CC[C@H](C(=O)Nc2nc(-c3c[nH]c4ncccc34)cs2)O1 [II-155] | < 500 nM | < 500 nM |

| Structure (SMILES) | Ki (PKA) | Ki (ROCK) |
| --- | --- | --- |
| CC(=O)N[C@H](C)C(=O)Nc1nc(-c2c[nH]c3ncccc23)cs1 [II-156] | 500 to 5000 nM | < 500 nM |
| O=C(CO)Nc1nc(-c2c[nH]c3ncccc23)cs1 [II-157] | 500 to 5000 nM | < 500 nM |
| O=C(Nc1nc(-c2c[nH]c3ncccc23)cs1)C1(O)CC1 [II-158] | < 500 nM | < 500 nM |
| CC(C)C(O)C(=O)Nc1nc(-c2c[nH]c3ncccc23)cs1 (stereo not drawn) [II-159] | < 500 nM | < 500 nM |
| CC(C)CC(=O)C(=O)Nc1nc(-c2c[nH]c3ncccc23)cs1 [II-160] | < 500 nM | < 500 nM |
| CS(=O)(=O)CC(=O)Nc1nc(-c2c[nH]c3ncccc23)cs1 [II-161] | < 500 nM | < 500 nM |
| CCC(=O)Nc1nc(-c2c[nH]c3ncccc23)cs1 [II-163] | 500 to 5000 nM | < 500 nM |
| CC(=O)NCCC(=O)Nc1nc(-c2c[nH]c3ncccc23)cs1 [II-164] | 500 to 5000 nM | < 500 nM |
| NCC(=O)Nc1nc(-c2c[nH]c3ncccc23)cs1 [II-165] | < 500 nM | < 500 nM |
| CC(C)C[C@H](N)C(=O)Nc1nc(-c2c[nH]c3ncccc23)cs1 [II-166] | < 500 nM | < 500 nM |
| CN1CCN(CCCS(=O)(=O)Nc2cccc(CC(=O)Nc3nc(-c4c[nH]c5ncccc45)cs3)c2)CC1 [II-167] | < 500 nM | < 500 nM |
| O=C(Cc1cccc(NS(=O)(=O)CCCN2CCCCC2)c1)Nc1nc(-c2c[nH]c3ncccc23)cs1 [II-168] | < 500 nM | < 500 nM |
| O=C(Cc1cccc(NS(=O)(=O)CCCN2CCOCC2)c1)Nc1nc(-c2c[nH]c3ncccc23)cs1 [II-169] | < 500 nM | < 500 nM |
| O=C(Nc1nc(-c2c[nH]c3ncccc23)cs1)[C@@H]1CCCN1 [II-171] | < 500 nM | < 500 nM |
| O=C(Nc1nc(-c2c[nH]c3ncccc23)cs1)C1CCOC1 (stereo not drawn) [II-172] | < 500 nM | < 500 nM |
| O=C(Nc1nc(-c2c[nH]c3ncccc23)cs1)C1CCCNC1 (stereo not drawn) [II-173] | < 500 nM | < 500 nM |
| O=C(Nc1nc(-c2c[nH]c3ncccc23)cs1)C1CCNCC1 [II-174] | 500 to 5000 nM | < 500 nM |
| O=C(Nc1nc(-c2c[nH]c3ncccc23)cs1)C1CCOCC1 [II-175] | < 500 nM | < 500 nM |
| N[C@@H](Cc1ccccc1)C(=O)Nc1nc(-c2c[nH]c3ncccc23)cs1 [II-176] | < 500 nM | < 500 nM |
| N[C@H](Cc1ccccc1)C(=O)Nc1nc(-c2c[nH]c3ncccc23)cs1 [II-177] | < 500 nM | < 500 nM |
| CN[C@@H](Cc1ccccc1)C(=O)Nc1nc(-c2c[nH]c3ncccc23)cs1 [II-178] | < 500 nM | < 500 nM |
| CNCC(=O)Nc1nc(-c2c[nH]c3ncccc23)cs1 [II-179] | < 500 nM | < 500 nM |
| NCCC(=O)Nc1nc(-c2c[nH]c3ncccc23)cs1 [II-180] | < 500 nM | < 500 nM |
| O=C(c1nc(-c2c[nH]c3ncccc23)cs1)N1CCNCC1 [II-181] | < 500 nM | < 500 nM |

| Structure (SMILES) | Ki (PKA) | Ki (ROCK) |
| --- | --- | --- |
| C[C@@H](CO)NC(=O)c1nc(-c2c[nH]c3ncccc23)cs1 [II-182] | 500 to 5000 nM | < 500 nM |
| CC(C)C(CO)NC(=O)c1nc(-c2c[nH]c3ncccc23)cs1 (stereo not drawn) [II-183] | 500 to 5000 nM | < 500 nM |
| O=C(N[C@H](CO)c1ccccc1)c1nc(-c2c[nH]c3ncccc23)cs1 [II-184] | < 500 nM | < 500 nM |
| O=C(N[C@@H](CO)c1ccccc1)c1nc(-c2c[nH]c3ncccc23)cs1 [II-185] | 500 to 5000 nM | < 500 nM |
| O=C(NC1CCN(Cc2ccccc2)C1)c1nc(-c2c[nH]c3ncccc23)cs1 (stereo not drawn) [II-186] | 500 to 5000 nM | < 500 nM |
| O=C(NC1CCNCC1)c1nc(-c2c[nH]c3ncccc23)cs1 [II-187] | < 500 nM | < 500 nM |
| O=C(CNCc1ccccc1)Nc1nc(-c2c[nH]c3ncccc23)cs1 [II-188] | < 500 nM | < 500 nM |
| NCCC(C(=O)Nc1nc(-c2c[nH]c3ncccc23)cs1)c1ccccc1 (stereo not drawn) [II-189] | < 500 nM | < 500 nM |
| NCCC(C(=O)Nc1nc(-c2c[nH]c3ncccc23)cs1)c1ccc(F)cc1 (stereo not drawn) [II-190] | < 500 nM | < 500 nM |
| NCCC(C(=O)Nc1nc(-c2c[nH]c3ncccc23)cs1)c1ccc(F)cc1F (stereo not drawn) [II-191] | < 500 nM | < 500 nM |
| NCCC(C(=O)Nc1nc(-c2c[nH]c3ncccc23)cs1)c1ccccc1Cl (stereo not drawn) [II-192] | < 500 nM | < 500 nM |
| CN(C)S(=O)(=O)Nc1cccc(CC(=O)Nc2nc(-c3c[nH]c4ncccc34)cs2)c1 [II-193] | < 500 nM | < 500 nM |
| NCC(C(=O)Nc1nc(-c2c[nH]c3ncccc23)cs1)c1ccccc1Cl (stereo not drawn) [II-194] | < 500 nM | < 500 nM |
| NCC(C(=O)Nc1nc(-c2c[nH]c3ncccc23)cs1)c1cccc(Cl)c1Cl (stereo not drawn) [II-195] | < 500 nM | < 500 nM |
| NCC(C(=O)Nc1nc(-c2c[nH]c3ncccc23)cs1)c1ccc(F)cc1Cl (stereo not drawn) [II-196] | < 500 nM | < 500 nM |
| c1cnc2[nH]cc(-c3csc(NCCCN4CCOCC4)n3)c2c1 [II-197] | 500 to 5000 nM | 500 to 5000 nM |
| CN1CCN(CCCNc2nc(-c3c[nH]c4ncccc34)cs2)CC1 [II-198] | 500 to 5000 nM | 500 to 5000 nM |
| c1coc(CNc2nc(-c3c[nH]c4ncccc34)cs2)c1 [II-199] | 500 to 5000 nM | < 500 nM |
| c1cnc2[nH]cc(-c3csc(NCC4CCCO4)n3)c2c1 (stereo not drawn) [II-200] | 500 to 5000 nM | 500 to 5000 nM |
| CN1CCN(CCCN(C(=O)Cc2ccccc2)c2nc(-c3c[nH]c4ncccc34)cs2)CC1 [II-201] | < 500 nM | < 500 nM |
| COc1cccc(CC(=O)N(CCCN2CCN(C)CC2)c2nc(-c3c[nH]c4ncccc34)cs2)c1 [II-202] | < 500 nM | < 500 nM |
| CN1CCN(CCCN(C(=O)Cc2cccc(NS(C)(=O)=O)c2)c2nc(-c3c[nH]c4ncccc34)cs2)CC1 [II-203] | < 500 nM | < 500 nM |
